# “And” between values parts separate entries of the source, which are not always exact repeats. Identical values can stand only once. “Also recorded” adds a separate entry of the source.
# B1: EntV: 68 amino acid active C-terminal form of the E. faecalis bacteriocin EntV (SEQ ID NO: 14) (protein, listed as Enterococcus faecalis)
# chain: LGSCVANKIKDEFFAMISISAIVKAAQKKAWKELAVTVLRFAKANGLKTNAIIVAGQLALWAVQCGLS
# Legend:
# C. albicans [1] = experiment: Killing of C. elegans by C. albicans (survival of infected nematodes); format: in vivo; conditions: for Median survival: C. albicans infected C. elegans exposed to 1 nM peptide, one value per trial
# Experimental: The α7 helix is sufficient to protect C. elegans and inhibit surface adhesion. Based on this structural characterization, fragments of EntV were examined to identify those structural moieties that retained antifungal activity. Synthetic peptides were generated of each of the four alpha helices (plus two flanking amino acids) from the active C-terminus of EntV—α4, α5, α6 and α7 (FIG. 1A) as well as an α4-α6 construct. The peptides were tested for their ability to protect C. elegans against C. albicans infection as established in previous work (Cruz et al., 2013; Graham et al., 2017).
# Killing of C. elegans by C. albicans. The methodology used for the C. elegans infection assays was performed, with a few modifications, as described ((Breger et al., 2007; Cruz et al., 2013; Graham et al., 2017; Peleg et al., 2008)). Briefly, C. elegans glp-4(bn2); sek-1(km-4) (Breger et al., 2007) nematodes were propagated and maintained on E. coli strain OP50(Brenner, 1974) that was seeded onto nematode growth medium (NGM) agar using standard techniques (Hope, 1999). To synchronize the animals, L1 stage worms on non-starved plates were washed off, filtered through a 10 μm filter (pluriSelect, pluriStrainer 10 μm), harvested by centrifugation, transferred to OP50 seeded plates, and grown to the L4 stage. To prepare the infection plates, C. albicans strain […] (Gillum et al., 1984) was grown in YPD broth for 24 h at 37° C. with agitation. 500 μl of the culture was plated onto BHI solid medium containing gentamycin (10 μg/ml) and grown for 24 h at 37° C. The synchronized, L4 C. elegans were washed off the OP50 plates in 2 ml sterile M9 buffer and washed once, centrifuging at 750×g for 30 seconds to collect animals. Animals were infected by placing them on the SC5314 lawn for 4 h at 25° C. Following this exposure, they were washed off the plate and washed four times with 2 ml of sterile M9. The nematodes were then pipetted (˜30 per well with 2 wells per condition for a total of ˜60 worms assayed) into six-well plates with 2 ml of liquid medium (20% BHI broth and 80% M9) containing the indicated concentrations of test compounds. Plates were incubated at 25° C., and worm death was scored daily. Kaplan-Meier survival curves were generated and analyzed as described in the quantification and statistical analysis section.
# C. albicans [2] = experiment: Mouse OPC (oropharyngeal candidiasis) model; format: in vivo
# Experimental: Mouse OPC model. The efficacy of EntV fragments were tested in the OPC model as described (Graham et al., 2017; Solis and Filler, 2012). Mice were immunosuppressed by injecting 225 mg/kg cortisone acetate subcutaneously 1 d before inoculation, and subsequently on days 1 and 3 of the infection. Group size was 6-8. To prepare the inoculum, 1 ml of C. albicans (SC5314) overnight culture grown at 30° C. in YPD broth was washed twice in PBS before resuspension in sterile Hanks' balanced salt solution (HBSS) at a concentration of 1×10^6 cells/mL. Calcium alginate swabs were soaked in this inoculum for 5 minutes prior to inoculation. Mice were anesthetized using ketamine and xylazine and placed on pre-warmed isothermal pads and the swabs were placed sublingually for 75 min. Mice were given additional doses of ketamine (50 mg/kg), as necessary. After inoculation, mice were given drinking water with EntV fragments or DMSO (0.01%) in the drinking water ad libitum. Mice were euthanized at 5 d after inoculation, unless noted. The tongues were excised and cut in half laterally for tissue histology and assessment of fungal burden.
# For tissue histology the tongue sample was placed in 10% zinc-buffered formalin overnight and stored in 80% ethanol, before embedding in paraffin. For each tongue, 5 μm sections were prepared using a Leica microtome and stained using Periodic Acid-Schiff (PAS) stain. Epithelial invasion was measured from 40× images taken of the entire tissue section of each tongue half with the total area of epithelium and infected epithelium were measured using ImageJ (version 1.6). Measurements were totaled and expressed as a percentage of total infected epithelium relative to the entire epithelial area (Graham et al., 2017; Moyes et al., 2016).
# For examination of fungal burden, qPCR was used by amplifying a 269-bp fragment of the internal transcribed spacer 2 (ITS2) between the 5.8S and 28S ribosomal RNA genes of C. albicans (Graham et al., 2017; Khot et al., 2009). DNA was extracted from homogenized tongue tissue using the Yeast DNA Extraction Kit (Thermo Scientific) according to the protocol with minor modifications. The ITS2 fragment was amplified by qPCR was performed with a CFX96 Real-Time System with a C1000 Touch thermal cycler (BioRad). C. albicans gDNA was quantified using FastStart Universal SYBR Green master mix with ROX (Roche). To screen for contamination and background fluorescence during the qPCR amplification, no template controls were used.
# C. albicans [3] = experiment: Intravenous (disseminated candidiasis) infection model, survival; format: in vivo, mouse; conditions: C. albicans pre-incubated with 100 nM for two hours prior to IV injection
# Excerpt: The wild-type 12-mer is protective in a systemic mouse model of C. albicans infection. Systemic bloodstream infections by C. albicans are the most life-threatening to patients. Mortality rates from disseminated candidiasis exceed 40% and new treatments are in dire need. Since EntV impairs hyphal morphogenesis and biofilm formation rather than killing C. albicans (Graham et al., 2017), it was unclear if EntV and EntV derivatives would be protective in a systemic infection model. To increase the chances of observing an effect, C. albicans were pre-incubated with 100 nM of EntV or the 12-mer for two hours prior to intravenous (IV) injection of 1×10^5 CFU. […] The median survival of animals injected with C. albicans alone was 7.5 days and all animals had expired by 11 days.
# Intravenous infection model. The disseminated candidiasis model was performed as described (Miramon and Lorenz, 2016; Williams and Lorenz, 2020). C. albicans SC5314 was grown overnight in YPD at 30° C., then diluted to a very low concentration and grown in a second overnight. The late-log phase culture was collected by centrifugation, washed in PBS, and diluted to 5×10^6 cells/ml in PBS containing vehicle (0.01% DMSO) or 100 nM EntV or the 12-mer peptide and incubated for 2 hours at room temperature. […] Animals were monitored at least twice daily for 21 days for signs of moribundity.
# [4] = 10 nM and 1 nM in drinking water
# [5] = 100 nM in drinking water for 5 days following inoculation
# [6] = 100 nM starting at day three, sacrificed on day five
Molecule,Protection of C. elegans from C. albicans infection (survival) (C. albicans [1]; 1 nM peptide),Median survival (C. albicans [1]),Epithelial invasion (C. albicans [2]; [4]),Fungal burden on the tongue (C. albicans [2]; [4]),Fungal burden (C. albicans [2]; 50 nM in drinking water),Hyphal invasion (C. albicans [2]; 50 nM in drinking water),Hyphal invasion relative to fluconazole (C. albicans [2]; 100 nM and 500 nM vs. 4 μg/mL fluconazole),Fungal burden in the tongue (C. albicans DNA by qPCR) (C. albicans [2]; [5]),"Hyphal (epithelial) invasion of the tongue (C. albicans [2]; 100 nM in drinking water for 5 days following inoculation, listed as 12-mer)","Fungal burden, treatment of established infection (C. albicans [2]; [6])","Hyphal invasion, treatment of established infection (C. albicans [2]; [6])","Fungal burden relative to fluconazole (C. albicans [2]; 100 nM vs. 4 μg/mL fluconazole, day 5)",Animals alive at end of experiment (day 22) (C. albicans [3])
VAGQLALWAVQC [12aa],as effective in protecting against C. albicans infection in the worm model and inhibiting surface adhesion as full-length EntV,11 days and 10 days and 12 days and 10.5 days and 9.5 days,the reduction in invasion remains dramatic,only a slight reduction in fungal burden on the tongue,loss of efficacy in terms of fungal burden,still a significant lowering of hyphal invasion,slightly less prevalent,equally effective,at least as effective as the full length EntV; also recorded: most reduced,significantly less fungal burden compared to both groups of untreated animals,The same patterns were observed,even more effective at reducing fungal burden than 4 μg/mL fluconazole,about half the animals were still alive
B1,,11 days and 10.5 days and 13 days and 12 days and 10 days and 9.5 days and 9 days,,,,,,significantly reduced the fungal burden,,,,,about half the animals were still alive
